Assay results taken from patent publication US6528630B1 (priority 1997, dated 2003).

How the values were obtained:
α1B-1α2bβ1-2 [1] = target: T1, α1B-1α2bβ1-2 (Homo sapiens, UniProt Q00975); type: cell-based
T1 construct: A full-length α1B DNA clone was constructed by ligating portions of the partial cDNA clones; expressed in transfected cells; host or cells: HEK293 (transient)

[2] = tested on: human neuronal calcium channel α2 and β1 subunits; assay: Two-electrode voltage clamp of Xenopus oöcytes injected with α2 and β1 transcripts; details: Bay K 8644; n=11
[3] = tested on: untransfected HEK 293 cells; assay: Whole-cell patch clamp of untransfected HEK 293 cells; type: cell-based, human; details: with or without cAMP or forskolin
α1B-2β1-2 = target: T2, α1B-2β1-2 (Homo sapiens, UniProt Q00975); type: binding
T2 construct: Full-length DNA clones and corresponding RNA transcripts, encoding α1, including splice variants of α1A, α1B; expressed in transfected cells; host or cells: HEK293 (transient)

α1B-2β1-3 = target: T3, α1B-2β1-3 (Homo sapiens, UniProt Q00975); type: binding
T3 construct: Full-length DNA clones and corresponding RNA transcripts, encoding α1, including splice variants of α1A, α1B; expressed in transfected cells; host or cells: HEK293 (transient)

α1B-2α2bβ1-3 = target: T4, α1B-2α2bβ1-3 (Homo sapiens, UniProt Q00975); type: binding
T4 construct: Full-length DNA clones and corresponding RNA transcripts, encoding α1, including splice variants of α1A, α1B; expressed in transfected cells; host or cells: HEK293 (transient)
T4 sequence (Q00975 1-2237 isoform Q00975-2): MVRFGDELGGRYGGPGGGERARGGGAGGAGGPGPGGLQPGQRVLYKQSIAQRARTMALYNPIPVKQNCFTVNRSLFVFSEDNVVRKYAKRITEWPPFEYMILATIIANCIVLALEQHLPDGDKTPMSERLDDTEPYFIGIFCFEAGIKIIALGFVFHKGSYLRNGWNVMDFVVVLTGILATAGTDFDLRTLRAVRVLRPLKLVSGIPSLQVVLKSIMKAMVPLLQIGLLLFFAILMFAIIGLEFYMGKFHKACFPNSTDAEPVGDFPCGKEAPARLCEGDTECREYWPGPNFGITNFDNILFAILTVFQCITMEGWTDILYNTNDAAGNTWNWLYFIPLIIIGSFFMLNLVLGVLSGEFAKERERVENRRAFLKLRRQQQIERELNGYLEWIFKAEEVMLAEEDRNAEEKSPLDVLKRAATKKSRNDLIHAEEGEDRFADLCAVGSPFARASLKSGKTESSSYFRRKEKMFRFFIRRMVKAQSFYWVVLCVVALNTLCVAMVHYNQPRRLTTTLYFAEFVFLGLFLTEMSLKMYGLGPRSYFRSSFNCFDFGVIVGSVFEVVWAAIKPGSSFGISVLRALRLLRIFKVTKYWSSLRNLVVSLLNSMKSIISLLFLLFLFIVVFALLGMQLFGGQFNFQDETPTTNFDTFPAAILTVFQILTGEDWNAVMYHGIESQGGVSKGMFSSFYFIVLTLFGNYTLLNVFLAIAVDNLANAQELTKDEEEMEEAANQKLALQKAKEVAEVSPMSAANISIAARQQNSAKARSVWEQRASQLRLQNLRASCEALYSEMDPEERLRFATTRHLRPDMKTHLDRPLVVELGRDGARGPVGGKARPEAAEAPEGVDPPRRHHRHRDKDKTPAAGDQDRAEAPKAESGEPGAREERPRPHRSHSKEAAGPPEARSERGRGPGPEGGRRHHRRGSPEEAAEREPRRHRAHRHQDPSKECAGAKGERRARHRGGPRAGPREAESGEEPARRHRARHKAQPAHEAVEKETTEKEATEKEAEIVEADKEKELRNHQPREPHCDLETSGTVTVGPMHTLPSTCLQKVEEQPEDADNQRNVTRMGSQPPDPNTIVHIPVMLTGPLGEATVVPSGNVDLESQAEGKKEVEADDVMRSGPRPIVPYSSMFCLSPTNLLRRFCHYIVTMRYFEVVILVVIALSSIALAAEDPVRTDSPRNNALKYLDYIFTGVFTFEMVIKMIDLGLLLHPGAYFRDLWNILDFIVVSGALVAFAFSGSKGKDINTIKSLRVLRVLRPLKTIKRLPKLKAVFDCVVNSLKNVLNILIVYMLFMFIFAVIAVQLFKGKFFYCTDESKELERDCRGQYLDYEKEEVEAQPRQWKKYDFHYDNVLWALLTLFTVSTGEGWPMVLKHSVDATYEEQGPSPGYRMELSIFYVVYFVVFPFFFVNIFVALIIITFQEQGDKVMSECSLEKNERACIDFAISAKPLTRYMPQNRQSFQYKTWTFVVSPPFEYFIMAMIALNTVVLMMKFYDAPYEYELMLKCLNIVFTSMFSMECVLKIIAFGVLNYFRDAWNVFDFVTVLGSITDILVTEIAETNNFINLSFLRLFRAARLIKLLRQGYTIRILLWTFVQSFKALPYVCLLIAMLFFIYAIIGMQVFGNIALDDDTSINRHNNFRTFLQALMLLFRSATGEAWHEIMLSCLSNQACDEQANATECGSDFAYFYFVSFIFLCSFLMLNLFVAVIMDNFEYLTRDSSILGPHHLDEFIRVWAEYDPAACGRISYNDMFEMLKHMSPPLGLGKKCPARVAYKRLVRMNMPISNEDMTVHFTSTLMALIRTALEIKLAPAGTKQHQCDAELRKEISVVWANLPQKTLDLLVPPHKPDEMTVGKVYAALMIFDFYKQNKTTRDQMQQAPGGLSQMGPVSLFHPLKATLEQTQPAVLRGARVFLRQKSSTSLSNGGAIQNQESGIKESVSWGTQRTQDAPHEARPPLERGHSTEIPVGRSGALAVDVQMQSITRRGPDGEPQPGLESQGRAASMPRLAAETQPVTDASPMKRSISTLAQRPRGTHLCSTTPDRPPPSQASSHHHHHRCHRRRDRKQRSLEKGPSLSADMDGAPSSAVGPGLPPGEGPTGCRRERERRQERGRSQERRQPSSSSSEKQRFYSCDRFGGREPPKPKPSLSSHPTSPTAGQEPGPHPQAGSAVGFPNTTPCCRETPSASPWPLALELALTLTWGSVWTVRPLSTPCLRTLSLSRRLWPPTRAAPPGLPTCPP

α1B-1α2bβ1-2 [4] = target: T1, α1B-1α2bβ1-2; type: binding
α1B-1β1-2 = target: T5, α1B-1β1-2 (Homo sapiens, UniProt Q00975); type: binding
T5 construct: A full-length α1B DNA clone was constructed by ligating portions of the partial cDNA clones; expressed in transfected cells; host or cells: HEK293 (transient)
T5 sequence (Q00975 whole entry, looked up): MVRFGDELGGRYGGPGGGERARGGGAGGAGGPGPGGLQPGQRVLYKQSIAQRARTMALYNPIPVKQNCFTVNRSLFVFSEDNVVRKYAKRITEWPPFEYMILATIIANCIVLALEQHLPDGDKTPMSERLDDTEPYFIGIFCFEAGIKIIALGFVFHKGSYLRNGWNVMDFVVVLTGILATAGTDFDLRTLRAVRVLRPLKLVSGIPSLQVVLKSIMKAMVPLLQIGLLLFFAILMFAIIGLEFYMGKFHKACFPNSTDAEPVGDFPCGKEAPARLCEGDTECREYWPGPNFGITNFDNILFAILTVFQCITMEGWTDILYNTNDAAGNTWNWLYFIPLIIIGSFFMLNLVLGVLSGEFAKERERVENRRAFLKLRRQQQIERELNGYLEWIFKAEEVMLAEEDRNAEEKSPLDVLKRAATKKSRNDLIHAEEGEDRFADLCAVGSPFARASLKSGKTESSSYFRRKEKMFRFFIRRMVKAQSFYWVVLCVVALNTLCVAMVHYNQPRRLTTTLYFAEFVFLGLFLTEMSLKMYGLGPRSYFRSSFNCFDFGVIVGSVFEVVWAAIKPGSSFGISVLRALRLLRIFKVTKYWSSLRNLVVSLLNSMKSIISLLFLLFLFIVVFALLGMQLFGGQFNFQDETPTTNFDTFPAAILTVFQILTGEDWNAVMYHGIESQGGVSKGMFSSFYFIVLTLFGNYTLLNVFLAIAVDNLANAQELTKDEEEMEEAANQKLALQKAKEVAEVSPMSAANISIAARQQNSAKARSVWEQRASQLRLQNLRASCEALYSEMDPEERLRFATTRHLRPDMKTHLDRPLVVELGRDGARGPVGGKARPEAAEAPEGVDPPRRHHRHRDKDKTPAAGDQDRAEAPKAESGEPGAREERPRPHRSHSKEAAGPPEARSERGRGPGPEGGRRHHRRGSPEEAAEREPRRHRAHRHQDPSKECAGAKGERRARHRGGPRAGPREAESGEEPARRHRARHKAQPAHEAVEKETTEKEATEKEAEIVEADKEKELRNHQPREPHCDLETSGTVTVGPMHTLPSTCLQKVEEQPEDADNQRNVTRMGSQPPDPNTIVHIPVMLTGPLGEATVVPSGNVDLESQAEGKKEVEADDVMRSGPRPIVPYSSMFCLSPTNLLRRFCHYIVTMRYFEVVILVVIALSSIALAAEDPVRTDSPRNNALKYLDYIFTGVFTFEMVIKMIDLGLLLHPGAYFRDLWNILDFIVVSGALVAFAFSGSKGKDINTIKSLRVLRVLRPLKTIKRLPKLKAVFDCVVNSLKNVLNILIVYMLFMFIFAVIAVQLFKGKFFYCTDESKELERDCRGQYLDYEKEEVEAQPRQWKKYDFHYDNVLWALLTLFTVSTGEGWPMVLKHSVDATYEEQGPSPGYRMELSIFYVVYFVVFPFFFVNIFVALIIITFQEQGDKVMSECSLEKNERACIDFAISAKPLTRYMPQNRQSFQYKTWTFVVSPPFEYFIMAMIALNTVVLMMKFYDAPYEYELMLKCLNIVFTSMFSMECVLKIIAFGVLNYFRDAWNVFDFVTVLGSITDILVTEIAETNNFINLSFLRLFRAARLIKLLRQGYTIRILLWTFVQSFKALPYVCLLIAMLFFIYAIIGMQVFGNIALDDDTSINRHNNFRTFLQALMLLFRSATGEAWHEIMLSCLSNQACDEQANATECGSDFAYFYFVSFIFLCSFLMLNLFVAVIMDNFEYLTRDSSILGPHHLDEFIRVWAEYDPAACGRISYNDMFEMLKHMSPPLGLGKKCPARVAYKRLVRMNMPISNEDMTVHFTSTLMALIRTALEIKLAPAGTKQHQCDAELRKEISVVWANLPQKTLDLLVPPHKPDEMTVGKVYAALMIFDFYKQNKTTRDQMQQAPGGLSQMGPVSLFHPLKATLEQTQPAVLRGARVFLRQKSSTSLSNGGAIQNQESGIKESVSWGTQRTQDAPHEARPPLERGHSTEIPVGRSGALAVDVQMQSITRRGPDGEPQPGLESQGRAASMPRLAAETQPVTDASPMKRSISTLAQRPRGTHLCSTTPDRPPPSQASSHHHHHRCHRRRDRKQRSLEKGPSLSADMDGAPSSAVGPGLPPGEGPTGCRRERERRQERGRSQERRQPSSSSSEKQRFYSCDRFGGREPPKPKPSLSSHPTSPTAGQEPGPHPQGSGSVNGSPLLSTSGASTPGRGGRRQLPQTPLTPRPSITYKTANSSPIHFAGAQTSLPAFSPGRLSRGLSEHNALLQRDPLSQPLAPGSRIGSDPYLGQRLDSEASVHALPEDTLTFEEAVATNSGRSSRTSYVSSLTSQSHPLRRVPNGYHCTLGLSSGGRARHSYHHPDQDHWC

α1B-1β1-3 = target: T6, α1B-1β1-3 (Homo sapiens, UniProt Q00975); type: binding
T6 construct: A full-length α1B DNA clone was constructed by ligating portions of the partial cDNA clones; expressed in transfected cells; host or cells: HEK293 (transient)
T6 sequence (Q00975 whole entry, looked up): as above

α1B-2a2bβ1-2 = target: T7, α1B-2a2bβ1-2 (Homo sapiens, UniProt Q00975); type: binding
T7 construct: Full-length DNA clones and corresponding RNA transcripts, encoding α1, including splice variants of α1A, α1B; expressed in transfected cells; host or cells: HEK293 (transient)
T7 sequence (Q00975 1-2237 isoform Q00975-2): as the sequence (Q00975 1-2237 isoform Q00975-2) above

α1B-1α2b = target: T8, α1B-1α2b (Homo sapiens, UniProt Q00975); type: binding
T8 construct: A full-length α1B DNA clone was constructed by ligating portions of the partial cDNA clones; expressed in transfected cells; host or cells: HEK293 (transient)
T8 sequence (Q00975 whole entry, looked up): as the sequence (Q00975 whole entry, looked up) above

α1B-1α2bβ1-3 = target: T9, α1B-1α2bβ1-3 (Homo sapiens, UniProt Q00975); type: binding
T9 construct: A full-length α1B DNA clone was constructed by ligating portions of the partial cDNA clones; expressed in transfected cells; host or cells: HEK293 (transient)
T9 sequence (Q00975 whole entry, looked up): as above

[5] = target: T10, α1B-1, α2b, and β1-2 subunits (Homo sapiens, UniProt Q00975); type: binding
T10 construct: A full-length α1B DNA clone was constructed by ligating portions of the partial cDNA clones; expressed in transfected cells; host or cells: HEK293 (transient)
T10 sequence (Q00975 whole entry, looked up): as above

T1 sequence (Q00975 whole entry, looked up): as above

With `COC(=O)C1=C(C)NC(C)=C([N+](=O)[O-])C1c1ccccc1C(F)(F)F` (centres unmarked) [Bay K 8644] the “effect on channel activity” value (α1B-1α2bβ1-2 [1]; 1 μM, n=4) was “no discernable effect”, the “sensitivity of inward barium currents” value [2] was “insensitive” and the “effects of Bay K 8644 (current magnitude, tail currents, activation voltage)” value [3] was “No such effects”.

With `C[C@@H](O)[C@@H]1NC(=O)[C@H](Cc2ccc(O)cc2)NC(=O)[C@@H]2C[C@@H](O)CN2C(=O)[C@H](CC(N)=O)NC(=O)[C@@H]2CSSC[C@@H]3NC(=O)[C@H](CO)NC(=O)[C@H](CO)NC(=O)CNC(=O)[C@@H]4C[C@@H](O)CN4C(=O)[C@H](CO)NC(=O)[C@H](CCCCN)NC(=O)[C@@H](N)CSSC[C@H](NC(=O)[C@H](CSSC[C@@H](C(=O)N[C@@H](Cc4ccc(O)cc4)C(N)=O)NC(=O)[C@H](CCCNC(=N)N)NC(=O)[C@H](CCCCN)NC1=O)NC(=O)[C@H](CC(N)=O)NC(=O)[C@H](Cc1ccc(O)cc1)NC(=O)[C@H](CO)NC(=O)[C@H]([C@@H](C)O)NC(=O)[C@@H]1C[C@@H](O)CN1C(=O)[C@H](CO)NC3=O)C(=O)N[C@@H](CCCNC(=N)N)C(=O)N[C@@H](CO)C(=O)N2` [^125I-ω-CgTx GVIA] the “Bmax (sites/cell)” value (α1B-2β1-2) was 2,126 ± 412 sites/cell, the “Bmax (sites/cell)” value (α1B-2β1-3) was 2,944 ± 1,168 sites/cell and the “Bmax (sites/cell)” value (α1B-2α2bβ1-3) was 37,652 ± 8,129 sites/cell. For the same compound, the “Bmax (sites/cell)” value (α1B-1α2bβ1-2 [4]) was 45,324 ± 15,606 sites/cell, the “Bmax (sites/cell)” value (α1B-1β1-2) was 5,756 ± 2,163 sites/cell and the “Bmax (sites/cell)” value (α1B-1β1-3) was 8,729 ± 2,980 sites/cell. For the same compound, the “Bmax (sites/cell)” value (α1B-2a2bβ1-2) was 19,371 ± 3,798 sites/cell, the “Bmax (sites/cell)” value (α1B-1α2b) was 2,256 ± 356 sites/cell and the “Bmax (sites/cell)” value (α1B-1α2bβ1-3) was 91,004 ± 37,654 sites/cell.

For `[Cd]` [cadmium], the blockage (α1B-1α2bβ1-2 [1]; 50 μM) was “rapid, complete, and reversible”.

In the case of `C[C@@H](O)[C@@H]1NC(=O)[C@H](Cc2ccc(O)cc2)NC(=O)[C@@H]2C[C@@H](O)CN2C(=O)[C@H](CC(N)=O)NC(=O)[C@@H]2CSSC[C@@H]3NC(=O)[C@H](CO)NC(=O)[C@H](CO)NC(=O)CNC(=O)[C@@H]4C[C@@H](O)CN4C(=O)[C@H](CO)NC(=O)[C@H](CCCCN)NC(=O)[C@@H](N)CSSC[C@H](NC(=O)[C@H](CSSC[C@@H](C(=O)N[C@@H](Cc4ccc(O)cc4)C(N)=O)NC(=O)[C@H](CCCNC(=N)N)NC(=O)[C@H](CCCCN)NC1=O)NC(=O)[C@H](CC(N)=O)NC(=O)[C@H](Cc1ccc(O)cc1)NC(=O)[C@H](CO)NC(=O)[C@H]([C@@H](C)O)NC(=O)[C@@H]1C[C@@H](O)CN1C(=O)[C@H](CO)NC3=O)C(=O)N[C@@H](CCCNC(=N)N)C(=O)N[C@@H](CO)C(=O)N2` [ω-CgTX], the block of activity (α1B-1α2bβ1-2 [1]) is reported as “blocked the activity completely”, the block of channels (α1B-1α2bβ1-2 [1]) is reported as “blocked irreversibly” and the “time to complete block” value (α1B-1α2bβ1-2 [1]) is reported as ≤ 2 min. For the same compound, the “binding capacity (Bmax)” value [5] was 28,710±11,950 sites per cell.
